# Assay results from patent US5990146A, “Benzimidazoles for inhibiting protein tyrosine kinase mediated cellular proliferation” (Warner-Lambert Company, priority 1998, dated 1999).
# Structures can show the parent of a compound that is named as a salt.
# Legend:
# [1] = biological target: T1, PDGF receptor tyrosine kinase (mouse PDGF-β) (Mus musculus, UniProt P05622); assay: PDGFr tyrosine kinase assay (poly glutamate-tyrosine phosphorylation); format: biochemical; conditions: Table 1; 10 minutes at 25° C.
# T1 construct: PCR primers are designed to amplify a fragment of DNA that codes for the intracellular tyrosine kinase domain; made in house; host or cells: Sf9 insect cells (baculovirus), cell lysate
# Protocol: Platelet Derived Growth Factor Receptor (PDGFr) and Fibroblast Growth Factor Receptor (FGFr)
# Full length cDNAs for the mouse PDGF-β and human FGF-1 (flg) receptor tyrosine kinases were obtained from J. Escobedo and are prepared as described in J. Biol. Chem., 262: 1482-1487 (1991). PCR primers are designed to amplify a fragment of DNA that codes for the intracellular tyrosine kinase domain. The fragment is melded into a baculovirus vector, cotransfected with AcMNPV DNA, and the recombinant virus isolated. SF9 insect cells are infected with the virus to overexpress the protein, and the cell lysate is used for the assay.
# The assay is performed in 96-well plates (100 μL/incubation/well), and conditions are optimized to measure the incorporation of ^32 p from [γ^32 P]-ATP into a glutamate-tyrosine copolymer substrate. Briefly, to each well is added 82.5 μL of incubation buffer containing 25 mM Hepes (pH 7.0), 150 mM NaCl, 0.1% Triton X-100, 0.2 mM PMSF, 0.2 mM sodium vanadate, 10 mM manganese chloride, and 750 μg/mL of poly (4:1) glutamate-tyrosine followed by 2.5 μL of inhibitor and 5 μL of enzyme lysate (7.5 μg/μL FGFR-TK or 6.0 μg/μL PDGFR-TK) to initiate the reaction. Following a 10 minute incubation at 25° C., 10 μL of [γ^32 P]-ATP (0.4 μCi plus 50 μM ATP) is added to each well and samples are incubated for an additional 10 minutes at 25° C. The reaction is terminated by the addition of 100 μL of 30% trichloroacetic acid (TCA) containing 20 mM sodium pyrophosphate and precipitation of material onto glass fiber filter mats (Wallac). Filters are washed 3 times with 15% TCA containing 100 mM sodium pyrophosphate and the radioactivity retained on the filters counted in a Wallac 1250 Betaplate reader. Nonspecific activity is defined as radioactivity retained on the filters following incubation of samples with buffer alone (no enzyme). Specific enzymatic activity is defined as total activity (enzyme plus buffer) minus nonspecific activity.
# [2] = biological target: T2, Human EGF receptor tyrosine kinase (Homo sapiens, UniProt P00533); assay: EGFr tyrosine kinase assay; format: biochemical; conditions: Table 1; 10 μM ATP, 25° C., 10 minutes
# T2 construct: Human EGF receptor tyrosine kinase is isolated from A431 human epidermoid carcinoma cells; endogenous in cells; host or cells: A431 human epidermoid carcinoma cells (detergent lysate, fast Q sepharose fractions)
# [3] = biological target: T3, insulin receptor (INSr) (Homo sapiens, UniProt P06213); assay: Insulin receptor kinase assay; format: biochemical; conditions: Table 1; as for EGF receptor with 10 mM manganese chloride
# T3 construct: An assay using the intracellular kinase domains of insulin receptor (INSr) is performed
# [4] = tested on: PDGF receptor autophosphorylation in rat aorta smooth muscle cells; assay: PDGF Receptor Autophosphorylation Assay in rat aorta smooth muscle cells; format: cell-based; conditions: Table 2, PDGF-BB 30 ng/mL, 2 hours pre-incubation, read-out: IC50, inhibition of PDGF-stimulated receptor autophosphorylation
# Protocol: Rat aorta smooth muscle cells (RASMC) are isolated from the thoracic aorta of rats and explanted according to the method of Ross, J. Cell. […] Cells are grown in Dulbecco's modified Eagle's medium (DMEM, Gibco) containing 10% fetal calf serum (FBS, Hyclone, Logan, Utah), 1% glutamine (Gibco) and 1% penicillin/streptomycin (Gibco). Cells are identified as smooth muscle cells by their "hill and valley" growth pattern and by fluorescent staining with a monoclonal antibody specific for SMC μ-actin (Sigma). RASMC are used between passages 5 and 20 for all experiments. Test compounds are prepared in dimethylsulfoxide (DMSO) in order to achieve consistency in the vehicle and to ensure compound solubility. Appropriate DMSO controls are simultaneously evaluated with the test compounds.
# Rat aortic smooth muscle cells are grown to confluencey in 100 mm dishes. Growth medium is removed and replaced with serum-free medium and cells are incubated at 37° C. for an additional 24 hours. Test compounds are then added directly to the medium and cells incubated for an additional 2 hours. After 2 hours PDGF-BB is added at a final concentration of 30 ng/mL for 5 minutes at 37° C. to stimulate autophosphorylation of PDGF receptors. Following growth factor treatment, the medium is removed, and cells are washed with cold phosphate-buffered saline and immediately lysed with 1 mL of lysis buffer (50 mM Hepes, pH 7.5, 150 mM NaCl, 10% glycerol, 1% Triton-X 100, 1 mM EDTA, 1 mM EGTA, 50 mM NaF, 1 mM sodium orthovanadate, 30 mM p-nitrophenyl phosphate, 10 mM sodium pyrophosphate, 1 mM phenylmethyl sulfonyl fluoride, 10 μg/mL aprotinin and 10 μg/mL leupeptin). Lysates are centrifuged at 10,000 ×g for 10 minutes. […] Following the incubation, protein-A-sepharose beads are added for 2 hours with continuous mixing, and immune complexes bound to the beads washed 4 times with 1 mL lysis wash buffer. Immune complexes are solubilized in 40 μL of Laemmli sample buffer and electrophoresed in 8-16% SDS polyacrylamide gels. Following electrophoresis, separated proteins are transferred to nitrocellulose and immunoblotted with a 1:1000 dilution of antiphosphotyrosine monoclonal antibody (UBI clone 4G10; #05-321). Following extensive washing with PBS-0.2% tween-20, the blots are incubated with horseradish peroxidase labeled goat antimouse IgG (1:5000; Bio-Rad Inc, Hercules, Calif.) and protein levels are detected by enhanced chemiluminescence (ECL) detection system according to the instructions of the supplier (Amersham Inc, Arlington Heights, Ill.). The density of the protein bands are determined using NIH Image software (v. 1.56) and IC50 values are generated from the densitometric data.
# [5] = tested on: SW-620 cells; assay: Human Colon Carcinoma Growth Delay Assay; format: cell-based; conditions: 72 h, Table 3, SW-620, 3 days
# Protocol: Human Colon Carcinoma Growth Delay Assay Human colon carcinoma cells are seeded into 96-well tissue culture plates in a final volume of 180 μL of 10% fetal bovine serum containing growth media and allowed to incubate overnight (37° C., 5% CO2, 95% air). Cells of the SW620 cell line are seeded at 1.0-1.5×10^4 cells per well. Cells of the HCT8 and HT29 cell lines are seeded at 2-4×10^3 cells per well. […] At the end of the incubation period, cells are fixed with 100 μL per well of 10% trichloroacetic acid after removing the drug/culture medium. The plates are washed 5 times with tap water and stained with 100 μL per well of 0.075% sulforhodamine B in 1% acetic acid for 10 minutes. The plates are rinsed 4 times and allowed to air dry. The stain in the wells are solubilized by the addition of 10 mM unbuffered Tris base and the absorbance read using a microtiter plate optical reader. Inhibition of cell growth is calculated from absorbance data of the treated cells compared to untreated control cells. Table 3 provides data for inhibition of growth in human adenocarcinoma cell lines.
# [6] = tested on: SW-620 cells; assay: Human Colon Carcinoma Clonogenic Assay; format: cell-based
# Protocol: SW620 cells are seeded at 7×10^5 per well; HCT8 cells are seeded at 5×10^5 per well; HT29 cells are seeded at 4×10^5 cells per well. Serially diluted drugs are prepared at 200 ×the final concentration and 15 μL are added to each of duplicate wells. Cells are incubated with drug for 2 days, rinsed once with 1 mL of trypsin+EDTA, and then trypsinized with the same trypsin solution. […] One milliliter of each of these cell suspensions is added to duplicate wells of 6 well plates previously prepared with 10% serum/growth medium/ 1% agarose plugs. The cells in these plates are incubated for approximately 2 weeks in the incubator and stained with 1 mL per well of 1 mg/mL iodonitrotetrazolium violet stain. The visible colonies are counted with an electronic optical colony counter and the clonogenicity of treated cells calculated in comparison to untreated control cells.
# [7] = biological target: T4, FGF receptor tyrosine kinase (human FGF-1 (flg)) (Homo sapiens, UniProt P11362); assay: FGFr tyrosine kinase assay (poly glutamate-tyrosine phosphorylation); format: biochemical; conditions: Table 1; 10 minutes at 25° C.
# T4 construct: PCR primers are designed to amplify a fragment of DNA that codes for the intracellular tyrosine kinase domain; made in house; host or cells: Sf9 insect cells (baculovirus), cell lysate
# Protocol: Platelet Derived Growth Factor Receptor (PDGFr) and Fibroblast Growth Factor Receptor (FGFr) Full length cDNAs for the mouse PDGF-β and human FGF-1 (flg) receptor tyrosine kinases were obtained from J. Escobedo and are prepared as described in J. Biol. Chem., 262: 1482-1487 (1991). PCR primers are designed to amplify a fragment of DNA that codes for the intracellular tyrosine kinase domain. The fragment is […] into a baculovirus vector, cotransfected with AcMNPV DNA, and the recombinant virus isolated. SF9 insect cells are infected with the virus to overexpress the protein, and the cell lysate is used for the […] and FGFr The assay is performed in 96-well plates (100 μL/incubation/well), and conditions are optimized to measure the incorporation of ^32 p from [γ^32 P]-ATP into a glutamate-tyrosine copolymer substrate. […] The reaction is terminated by the addition of 100 μL of 30% trichloroacetic acid (TCA) containing 20 mM sodium pyrophosphate and precipitation of material onto glass fiber filter mats (Wallac). Filters are washed 3 times with 15% TCA containing 100 mM sodium pyrophosphate and the radioactivity retained on the filters counted in a Wallac 1250 Betaplate reader. Nonspecific activity is defined as radioactivity retained on the filters following incubation of samples with buffer alone (no enzyme). Specific enzymatic activity is defined as total activity (enzyme plus buffer) minus nonspecific activity.
# [8] = biological target: MAP Kinase Pathway (GST-MEK / GST-MAPK); assay: Cascade Assay for Inhibitors of the MAP Kinase Pathway (APK Assay); format: biochemical; conditions: Table 1; 50 μM ATP, 20 minutes
# Protocol: Cascade Assay for Inhibitors of the MAP Kinase Pathway (APK Assay) Incorporation of ^32 P into myelin basic protein (MBP) is assayed in the presence of a glutathione S-transferase fusion protein containing p44MAP kinase (GST-MAPK) and a glutathione S-transferase fusion protein containing p45MEK (GST-MEK). […] Reactions are stopped after 20 minutes by addition of trichloroacetic acid and filtered through a GF/C filter mat. ^32 P retained on the filter mat is determined using a 1205 betaplate. […] To ascertain whether compounds are inhibiting GST-MEK or GST MAPK, two additional protocols are employed. In the first protocol, compounds are added to tubes containing GST MEK, followed by addition of GST-MAPK, MBP and [γ^32 P]ATP. In the second protocol, compounds are added to tubes containing both GST-MEK and GST-MAPK, followed by MBP and [γ^32 P]ATP. Compounds that show activity in both protocols are scored as […], while compounds showing activity in only the first protocol are scored as MEK inhibitors.
# [9] = biological target: Protein kinase C (PKC); assay: PKC assay; format: biochemical; conditions: Table 1; rat brain preparation
# Protocol: Protein kinase C (PKC) is obtained as a rat brain preparation from Promega.
# The PKC assay is performed as previously described by Martiny-Baron, et al., J. Biol. Chem. 268: 9194-9197 (1993).
# [10] = biological target: T5, c-Src (Homo sapiens, UniProt P12931); assay: c-Src kinase assay; format: biochemical; conditions: Table 1; 5 μM ATP, room temperature, 10 minutes
# T5 construct: made in house; host or cells: baculovirus infected insect cells
# Protocol: c-Src kinase is purified from baculovirus infected insect cell lysates using an antipeptide monoclonal antibody directed against the N-terminal 2-17 amino acids as described previously by Fry, et al, Anticancer Drug Design. 9: 331-351 (1994). […] At the end of the lysate incubation, the beads are rinsed 3 times in lysis buffer, resuspended in lysis buffer containing 10% glycerol, and frozen. These latex beads are thawed, rinsed 3 times in assay buffer which is comprised of 40 mM tris pH 7.5, 5 mM magnesium chloride, and suspended in the same buffer. […] The reaction is started at room temperature by addition of the ATP and quenched 10 minutes later by the addition of 125 μL of 30% TCA, 0.1 M sodium pyrophosphate for 15 minutes on ice. The plate is then filtered and the wells washed with two 250-μL aliquots of 15% TCA, 0.1 M pyrophosphate. The filters are punched, counted in a liquid scintillation counter, and the data examined for inhibitory activity in comparison to a known inhibitor such as erbstatin. The method is described more fully in J. Med. Chem., 37: 598-609 (1994).
# [11] = Table 3, SW-620, 2 days drug exposure, approximately 2 weeks colony growth, read-out: SW-620 Clonogenic IC50
# T4 sequence (P11362 478-767 limits assumed): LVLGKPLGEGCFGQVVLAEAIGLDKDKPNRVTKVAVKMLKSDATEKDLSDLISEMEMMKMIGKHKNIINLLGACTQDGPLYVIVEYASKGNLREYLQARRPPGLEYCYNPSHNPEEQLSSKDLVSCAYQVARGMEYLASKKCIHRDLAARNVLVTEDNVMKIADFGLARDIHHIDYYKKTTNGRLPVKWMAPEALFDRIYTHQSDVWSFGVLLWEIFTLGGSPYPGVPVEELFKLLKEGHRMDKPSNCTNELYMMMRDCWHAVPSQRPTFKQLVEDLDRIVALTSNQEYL
# T2 sequence (P00533 25-1210): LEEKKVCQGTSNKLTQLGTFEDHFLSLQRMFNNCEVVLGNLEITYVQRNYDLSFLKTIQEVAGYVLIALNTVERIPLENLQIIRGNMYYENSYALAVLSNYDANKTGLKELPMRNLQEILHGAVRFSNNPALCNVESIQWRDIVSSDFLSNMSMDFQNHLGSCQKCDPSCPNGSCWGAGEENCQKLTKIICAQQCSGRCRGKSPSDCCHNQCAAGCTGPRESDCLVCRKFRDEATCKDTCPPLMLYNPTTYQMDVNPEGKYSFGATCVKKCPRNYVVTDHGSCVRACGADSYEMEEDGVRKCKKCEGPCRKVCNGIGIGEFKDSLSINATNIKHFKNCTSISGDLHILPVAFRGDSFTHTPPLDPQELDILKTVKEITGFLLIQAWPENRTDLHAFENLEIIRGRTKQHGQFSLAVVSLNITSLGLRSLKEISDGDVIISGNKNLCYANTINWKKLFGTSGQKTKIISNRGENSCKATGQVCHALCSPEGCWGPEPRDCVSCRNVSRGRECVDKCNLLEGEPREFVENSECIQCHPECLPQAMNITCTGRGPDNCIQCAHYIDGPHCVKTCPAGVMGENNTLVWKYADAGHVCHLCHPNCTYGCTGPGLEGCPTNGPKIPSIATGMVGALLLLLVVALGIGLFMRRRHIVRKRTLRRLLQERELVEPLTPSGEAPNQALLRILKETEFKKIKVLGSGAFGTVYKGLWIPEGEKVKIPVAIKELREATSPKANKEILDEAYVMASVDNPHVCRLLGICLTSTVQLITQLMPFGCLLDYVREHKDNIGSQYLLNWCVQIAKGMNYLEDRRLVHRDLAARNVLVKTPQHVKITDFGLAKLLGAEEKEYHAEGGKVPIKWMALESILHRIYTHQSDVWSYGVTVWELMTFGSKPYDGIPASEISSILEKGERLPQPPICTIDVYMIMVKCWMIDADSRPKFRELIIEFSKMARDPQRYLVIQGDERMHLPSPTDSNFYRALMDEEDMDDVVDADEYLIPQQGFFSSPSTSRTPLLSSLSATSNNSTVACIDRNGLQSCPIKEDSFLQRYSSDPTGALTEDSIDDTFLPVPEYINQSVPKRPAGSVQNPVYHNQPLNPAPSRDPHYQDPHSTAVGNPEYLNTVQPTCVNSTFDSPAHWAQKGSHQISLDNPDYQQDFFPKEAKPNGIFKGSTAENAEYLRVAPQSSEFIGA
# T5 sequence (P12931 whole entry, species assumed): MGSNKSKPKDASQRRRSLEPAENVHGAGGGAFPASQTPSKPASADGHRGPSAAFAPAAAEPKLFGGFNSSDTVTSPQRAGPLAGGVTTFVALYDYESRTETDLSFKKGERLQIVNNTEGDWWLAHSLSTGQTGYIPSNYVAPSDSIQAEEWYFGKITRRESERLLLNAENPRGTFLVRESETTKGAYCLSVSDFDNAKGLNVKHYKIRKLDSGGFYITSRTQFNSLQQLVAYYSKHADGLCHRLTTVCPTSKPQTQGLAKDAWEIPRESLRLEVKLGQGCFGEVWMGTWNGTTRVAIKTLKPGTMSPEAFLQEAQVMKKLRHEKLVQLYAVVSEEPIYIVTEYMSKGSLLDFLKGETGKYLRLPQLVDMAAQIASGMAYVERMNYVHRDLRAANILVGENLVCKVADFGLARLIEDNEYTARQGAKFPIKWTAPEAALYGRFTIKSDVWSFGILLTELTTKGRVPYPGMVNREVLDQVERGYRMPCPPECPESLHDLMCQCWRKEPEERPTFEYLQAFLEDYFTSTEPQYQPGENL
# T1 sequence (P05622 599-961 limits assumed): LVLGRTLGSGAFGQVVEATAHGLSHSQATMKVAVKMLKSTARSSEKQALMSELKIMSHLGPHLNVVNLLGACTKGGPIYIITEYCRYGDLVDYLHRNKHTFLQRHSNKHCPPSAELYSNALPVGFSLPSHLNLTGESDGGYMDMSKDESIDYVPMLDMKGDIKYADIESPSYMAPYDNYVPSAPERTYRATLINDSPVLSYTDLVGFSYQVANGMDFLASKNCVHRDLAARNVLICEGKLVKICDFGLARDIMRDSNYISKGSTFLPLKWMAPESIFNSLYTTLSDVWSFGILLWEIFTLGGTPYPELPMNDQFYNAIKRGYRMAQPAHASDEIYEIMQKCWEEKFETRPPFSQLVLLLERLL
# T3 sequence (P06213 1023-1298 limits assumed, species assumed): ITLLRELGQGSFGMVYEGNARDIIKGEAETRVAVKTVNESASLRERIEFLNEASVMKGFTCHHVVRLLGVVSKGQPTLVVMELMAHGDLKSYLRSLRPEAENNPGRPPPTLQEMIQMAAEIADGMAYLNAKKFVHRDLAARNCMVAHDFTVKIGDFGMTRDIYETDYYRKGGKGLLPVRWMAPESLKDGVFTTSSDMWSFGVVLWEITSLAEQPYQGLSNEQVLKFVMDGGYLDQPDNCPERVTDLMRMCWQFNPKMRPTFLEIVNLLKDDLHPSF
IC50 [1] [µM],IC50 [2] [µM],IC50 [3] [µM],IC50 [7] [µM],IC50 [8] [µM],IC50 [9] [µM],IC50 [10] [µM],SMILES,IC50 [4] [µM],IC50 [5] [µM],"IC50 ([6]; SW-620, read-out: SW-620 Clonogenic IC50) [µM]","IC50 [6, 11] [µM]"
0.2,> 40,> 50,4.1,27,> 50,14,"CN(C)CCCOc1ccc2c(c1)ncn2-c1ccccc1 [Example 37, 5-[3--(N,N-Dimethylamino)propoxyl]-1-phenylbenzimidazole Dihydrochloride]",,,,
0.7,> 40,> 50,28,45,> 50,> 50,"c1ccc(-n2cnc3cc(OCCN4CCOCC4)ccc32)cc1 [Example 38, 5-[2-(4-Morpholino)ethoxy]-1-phenylbenzimidazole Dihydrochloride]",0.7,,,
0.2,> 40,> 50,9.8,18,> 50,> 50,"c1ccc(-n2cnc3cc(OCCCN4CCOCC4)ccc32)cc1 [Example 39, 5-[3-(4-Morpholino)propoxy]-1-phenylbenzimidazole Dihydrochloride]",,,,
0.3,< 40,> 50,18,37,> 50,> 50,"COc1ccc2c(c1)ncn2-c1ccc(N)cc1 [Example 45, 1-(4-Aminophenyl)-5-methoxybenzimidazole Dihydrochloride]",3.5,,,

SMILES,IC50 [1] [µM],IC50 [2] [µM],IC50 [3] [µM],IC50 [7] [µM],IC50 [8] [µM],IC50 [9] [µM],IC50 [10] [µM],IC50 [4] [µM],IC50 [5] [µM],"IC50 ([6]; SW-620, read-out: SW-620 Clonogenic IC50) [µM]","IC50 [6, 11] [µM]"
"Oc1cccc2c1ncn2-c1ccccc1 [Example 11, 4-Hydroxy-1-phenylbenzimidazole Hydrochloride]",10.6,> 50,> 50,,,,,> 10,> 25,> 5,2.1
"COc1ccc2c(c1)ncn2-c1ccccc1 [Example 13, 5-Methoxy-1-phenylbenzimidazole Hydrochloride]",0.4,< 50,> 50,22,5,> 50,,2,> 25,,> 5
"c1ccc(-n2cnc3cc(OCCCCN4CCOCC4)ccc32)cc1 [Example 59, 5-[4-(4-Morpholino)butoxy]-1]phenylbenzimidazole Dihydrochloride]",0.3,,,12,,,25,2.2,> 25,,> 25
